We go through five molecules from patent publication US10751318B2, “Pharmaceutical co-crystal and use thereof” (SYN-NAT PRODUCTS ENTERPRISE LLC, priority 2015, dated 2020).

Values joined by “and” are separate entries in the source; they are usually repeats but may differ in a detail not shown here. Equal entries are not always repeated. Where two headings read alike, the source gives them in different places.

Data set [1] has as its system A498 kidney cancer cell line. In words: MTS cell viability assay, A498 kidney cancer cells. The data set is classed as cell-based. (In general: Tetrazolium assays rely on reduction of a dye to a coloured formazan, in cell work by metabolically active cells.)
In data set [2] the test system is human embryonic kidney cell line HEK293. In words: MTS cell viability assay, HEK293 (kidney cancer study; controls carboplatin, 5-FU).
Data set [3] relates to ACHN kidney cancer cell line. Put plainly: MTS cell viability assay, ACHN kidney cancer cells. The class given is cell-based. Particulars: read-out: IC50 to reduce ACHN cell number.
The test system of data set [4] is fetal hepatocytes HL-7002. Put plainly: MTS cell viability assay, HL-7002 (kidney cancer study; controls carboplatin, 5-FU). As to conditions: for IC50: read-out: IC50 in HL-7002 cells.
Data set [5] can be described thus: Water solubility.
Data set [6] deals with PC-3 prostate cancer cell line. Put plainly: MTS cell viability assay, PC-3 prostate cancer cells. The data set is classed as cell-based, human. As to conditions: PC-3 cells, 0.01 to 300 μM, read-out: IC50 to reduce PC-3 cell number.
Data set [7] has as its system LNCaP prostate cancer cell line. In words: MTS cell viability assay, LNCaP prostate cancer cells. The data set is classed as cell-based, human. As to conditions: 0.01 to 300 μM, read-out: IC50 to reduce LNCaP cell number.
Data set [8] relates to fetal hepatocytes HL-7002. Put plainly: MTS cell viability assay, HL-7002 (prostate cancer study; controls docetaxel, cisplatin). As to conditions: for IC50: read-out: IC50 to reduce HL-7002 cell number.
For data set [9], the system named is human embryonic kidney cell line HEK293. Put plainly: MTS cell viability assay, HEK293 (prostate cancer study; controls docetaxel, cisplatin). Particulars: for toxicity to HEK293 cells: study with docetaxel and cisplatin (FIG. 4).
The test system of data set [10] is HBeAg secreted by HepG2.2.15 cells. Put plainly: HBeAg secreted by HepG2.2.15 cells (ELISA). As to conditions: 3d. The class given is cell-based, hepatitis B virus. An excerpt:
(§1) The levels of HbsAg and HbeAg in chemical-treated HepG2.2.15 cells were detected by enzyme-linked immunosorbent assay (ELISA).
(In general: An ELISA detects its analyte on a solid surface through an enzyme-linked reagent.)

The test system of data set [11] is HBsAg secreted by HepG2.2.15 cells. Put plainly: HBsAg secreted by HepG2.2.15 cells (ELISA). The class given is cell-based, hepatitis B virus. Particulars: 3d.
Excerpt: as §1

[12] abbreviates: A498 cells, MTS, 0.01 to 300 uM, read-out: IC50 to reduce A498 cell number.
Where [13] appears, read: read-out: IC50 in HEK293 cells, HEK293 cells, study with carboplatin and 5-FU (FIG. 8).
Setting [14] is: ACHN cells, MTS, 0.01 to 300 uM.
The mark [15] stands for this setting: HL-7002 cells, study with carboplatin and 5-FU (FIG. 7).
The mark [16] stands for this setting: HL-7002 cells, study with docetaxel and cisplatin (FIG. 3).
[17] abbreviates: HEK293 cells, similar conditions.
[18] abbreviates: HL-7002 cells, similar conditions.

For the molecule `O=c1[nH]cc(F)c(=O)[nH]1` [5-FU, fluorouracil, reference compound], the concentration for half-maximal inhibition (IC50) – broadly, the concentration at which inhibition is half-maximal – came out at 18.2 µM in data set [1] (Homo sapiens, A498, read-out: IC50 to reduce A498 cell number); 356 µM in [2] (Homo sapiens, HEK293, read-out: IC50 in HEK293 cells); 6.45 µM in [3] (Homo sapiens, ACHN); 45 µM in [4] (Homo sapiens, Hepatocyte).

In the case of `N.N.O=C([O-])C1(C(=O)[O-])CCC1.[Pt+2]` [carboplatin, reference compound], the IC50 in [1] (setting [12]) is 14.7 µM; in [2] (setting [13]) it was 237 µM; in data set [3] (setting [14]), 11 µM; in data set [4] (setting [15]), 34 µM. This molecule returned a water solubility in [5] of 18 mg/mL.

On to `N.N.[Cl][Pt][Cl]` [cisplatin, reference compound], for which the 50% inhibitory concentration (IC50) was found to be 2.49 µM in data set [6]; 2.25 µM in [7]; 2.01 µM in data set [8] (setting [16]); 6.9 µM in [9] (read-out: IC50 in HEK293 cells, study with docetaxel and cisplatin (FIG. 4)).

Take `CC(=O)O[C@@]12CO[C@@H]1C[C@H](O)[C@@]1(C)C(=O)[C@H](O)C3=C(C)[C@@H](OC(=O)[C@H](O)[C@@H](NC(=O)OC(C)(C)C)c4ccccc4)C[C@@](O)([C@@H](OC(=O)c4ccccc4)[C@H]21)C3(C)C` [docetaxel, reference compound]: the IC50 in data set [8] (Homo sapiens, Hepatocyte) worked out at 0.095 µM. The “toxicity to HEK293 cells” value in data set [9] is on record as “strong toxicity”.

In the case of “carboplatin cis-cyclobutane-1,2-dicarboxylic acid co-crystal [CBCBP]”, the “inhibition rate HbeAg” value in [10] (3.125 μg/mL) was determined as 0.6%; in data set [10] (6.25 μg/mL) it was 25.0%; in data set [10] (12.5 μg/mL) it was 25.3%; in data set [10] (25 μg/mL), 28.5%. Besides, the IC50 in data set [6] is ~17.6 µM and 17.6 µM; in data set [7] it was roughly 19.6 µM; in data set [1] (setting [12]), ~18.4 µM and 18.4 µM; in data set [2] (setting [13]), 1200 µM and ~1200 µM; in [8] (setting [16]), ~20.5 µM and 20.5 µM; in data set [3] (setting [14]), 11.6 µM and ~11.6 µM. Moreover, the IC50 in [4] (setting [15]) is 351 µM and ~351 µM. Besides, the figures for the “toxicity of CBCBP relative to 5-FU” value in [2] (setting [17]) and in data set [4] (setting [18]) were “about ¼” and “about ⅛”, respectively. Also, the “toxicity of CBCBP relative to carboplatin” value was “about ⅕” in [2] (setting [17]) and “about 1/10” in [4] (setting [18]). Also, in data set [8] (setting [18]), the “toxicity of CBCBP relative to cisplatin” value is “about 1/10”. In data set [8] (setting [18]), the “toxicity of CBCBP relative to docetaxel” value is given as “about 1/216”. Moreover, the “inhibition rate HbsAg” value in data set [11] (3.125 μg/mL) is reported as 19.5%; in [11] (6.25 μg/mL), 23.6%; in data set [11] (12.5 μg/mL), 37.3%; in data set [11] (25 μg/mL), 48.5%. Moreover, in [9], the “toxicity to HEK293 cells” value is listed as “no toxicity”. Further, the water solubility in data set [5] was roughly 30 mg/mL.
